Counter-ions that a name gives are not always drawn. Like-named read-outs stand apart in the source and are kept apart here.
Molecular target: Nrf2-Keap1 complex (Homo sapiens, UniProt Q14145)
Experiment: cell-based
Format: cell-based
Details: for activation at 16 µM / activation at 32 µM: 3 h; for activation at 16 µM: read-out: Activation 100 nL; for activation at 32 µM: read-out: Activation 200 nL
[1] = Table 1A, 100 nL compound, screen run at 16 and 32 μM, 3 hr
[2] = Table 1A, 200 nL compound, screen run at 16 and 32 μM, 3 hr
[3] = Table 2, 100 nL compound, screen run at 16 and 32 μM, 3 hr
[4] = Table 2, 200 nL compound, screen run at 16 and 32 μM, 3 hr

Nrf2-Keap1 complex, sequence (Q14145 whole entry, one chain of several): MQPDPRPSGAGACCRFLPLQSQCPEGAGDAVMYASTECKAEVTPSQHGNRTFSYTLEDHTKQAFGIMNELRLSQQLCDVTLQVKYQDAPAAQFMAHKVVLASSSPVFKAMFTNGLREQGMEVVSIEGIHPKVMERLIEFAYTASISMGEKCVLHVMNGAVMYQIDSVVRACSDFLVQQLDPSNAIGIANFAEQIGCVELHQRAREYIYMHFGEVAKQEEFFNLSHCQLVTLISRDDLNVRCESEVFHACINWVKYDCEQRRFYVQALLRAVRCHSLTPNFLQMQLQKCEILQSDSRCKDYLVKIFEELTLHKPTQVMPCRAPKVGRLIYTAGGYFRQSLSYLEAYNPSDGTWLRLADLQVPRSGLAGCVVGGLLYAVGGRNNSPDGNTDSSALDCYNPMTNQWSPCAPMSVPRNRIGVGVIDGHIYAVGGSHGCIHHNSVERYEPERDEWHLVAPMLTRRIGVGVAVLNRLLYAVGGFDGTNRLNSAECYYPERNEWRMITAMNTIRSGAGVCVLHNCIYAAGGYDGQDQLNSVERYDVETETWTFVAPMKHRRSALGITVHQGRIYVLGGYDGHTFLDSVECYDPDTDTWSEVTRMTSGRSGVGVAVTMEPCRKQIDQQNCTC

Compound	activation at 16 µM [%]	activation at 32 µM [%]	100 nL (luminescence) [3]	200 nL (luminescence) [4]	also measured
COC(=O)Nc1nc2cc(C(=O)c3cccs3)ccc2[nH]1 [NOCODAZOLE, reference compound]	28	48			100 nL (luminescence) [1]: 940; 200 nL (luminescence) [2]: 980
COc1ccc2c(c1)OCC(=Cc1ccc(O)c(O)c1)C2=O			4822	2904	Activation 100 nL: 292%; Activation 200 nL: 169%
CN1CCN(CC/C=C2/c3ccccc3Sc3ccc(S(=O)(=O)N(C)C)cc32)CC1 [THIOTHIXENE, reference compound]	55	-26	1500	68	
AVOCADYNOFURAN			582	1008	Activation 100 nL: 25%; Activation 200 nL: 29%
CC(C)=CCCC1(C)C=Cc2c(O)c3c(c(CC=C(C)C)c2O1)OC12C(=CCCC1C(C)(C)O[C@@]2(C/C=C(\C)C(=O)O)C(=O)O)C3=O (stereo partly drawn) [GARCINOLICACID]	29	33	800	832	
O=C(/C=C/c1ccc(O)cc1)c1ccccc1O [2′,4-DIHYDROXYCHALCONE]	390	-9	3784	120	
METHYL7-DESHYDROXYPYROGALLIN-4-CARBOXYLATE			4444	3792	Activation 100 nL: 466%; Activation 200 nL: 147%
CC1(C)C2CC(=O)O[C@@]3(C)C4=CC(=O)O[C@@H](c5ccoc5)[C@]4(C)CCC3[C@@]2(C)C=C[C@H]1O (stereo partly drawn) [DEOXYANDIROBINLACTONE]	40	52	964	1124	
COC(=O)CC[C@@H](C)[C@H]1CC[C@H]2[C@@H]3[C@H](O)C[C@@H]4C[C@H](O)CC[C@]4(C)[C@H]3C[C@H](O)[C@]12C [CHOLICACID, METHYLESTER]			848	804	Activation 100 nL: 36%; Activation 200 nL: 15%
CCC(C)C(=O)c1c(O)c(C)c2oc3c(C)c(O)c(C(=O)C(C)CC)c(O)c3c2c1O (stereo not drawn) [RHODOMYRTOXINB]	56	36			100 nL (luminescence) [1]: 1120; 200 nL (luminescence) [2]: 1276
C=C(NC(=O)C(=C)NC(=O)c1csc(C2=N[C@@H]3c4csc(n4)[C@H]4NC(=O)c5csc(n5)[C@H]([C@](C)(O)[C@@H](C)O)NC(=O)[C@H]5CSC(=N5)/C(=C/C)NC(=O)[C@H]([C@@H](C)O)NC(=O)c5csc(n5)[C@]3(CC2)NC(=O)[C@H](C)NC(=O)C(=C)NC(=O)[C@H](C)NC(=O)[C@H]([C@@H](C)CC)N[C@@H]2C=Cc3c([C@H](C)O)cc(nc3[C@H]2O)C(=O)O[C@@H]4C)n1)C(N)=O [THIOSTREPTON, reference compound]	58	50			100 nL (luminescence) [1]: 876; 200 nL (luminescence) [2]: 1504
CC(=O)O[C@@H]1C[C@H]2C(C)(C)[C@@H](O)CC[C@]2(C)[C@H]2CC[C@@]3(C)[C@H](c4ccoc4)OC(=O)[C@H]4O[C@]43[C@@]21C [beta-DIHYDROGEDUNOL]			2270	3252	Activation 100 nL: 217%; Activation 200 nL: 124%; Neh2-luc reporter activation: 220%
COc1c(C)c2c(c(O)c1C/C=C(\C)CCC(=O)O)C(=O)OC2 [MYCOPHENOLICACID, reference compound]	26	84	904	1428	
CC(=O)C(=Cc1ccccc1)CC(=O)O			1048	1348	Activation 100 nL: 78%; Activation 200 nL: 43%
COc1ccc2cc1Oc1ccc(cc1)C[C@H]1c3c(cc4c(c3Oc3cc5c(cc3OC)CCN(C)[C@@H]5C2)OCO4)CCN1C [CEPHARANTHINE, reference compound]	98	9			100 nL (luminescence) [1]: 2348; 200 nL (luminescence) [2]: 584
Nc1nc(N)c2nc(-c3ccccc3)c(N)nc2n1 [reference compound]	405	23			100 nL (luminescence) [1]: 3914; 200 nL (luminescence) [2]: 872
C[C@]12C=CC(=O)C=C1CC[C@@H]1[C@@H]2CC[C@]2(C)C(=O)CC[C@@H]12 [ANDROSTA-1,4-DIEN-3,17-DIONE]	81	70	1444	2048	
O=C(C=C(O)c1ccccc1)c1ccccc1O [2′,beta-DIHYDROXYCHALCONE]			2064	44	Activation 100 nL: 112%; Activation 200 nL: −18%
O=C(O)/C=C/c1ccc(O)c(O)c1 [[…]]	50	61	1040	1840	
COc1cc([C@@H]2c3cc4c(cc3[C@@H](O[C@@H]3O[C@@H]5CO[C@@H](C)O[C@H]5[C@H](O)[C@H]3O)[C@H]3COC(=O)[C@H]23)OCO4)cc(OC)c1O [ETOPOSIDE, reference compound]	40	89	1180	1484	

Compound	activation at 16 µM [%]	activation at 32 µM [%]	100 nL (luminescence) [3]	200 nL (luminescence) [4]	also measured
CSc1nc(NC(C)C)nc(NC(C)C)n1 [PROMETRYN]	67	4	1264	542	
COc1cc2nc(N3CCN(C(=O)c4ccco4)CC3)nc(N)c2cc1OC [PRAZOSINHYDROCHLORIDE, reference compound]	87	40			
CC(=O)NCCc1c[nH]c2ccc(O)cc12 [ACETYLSEROTONIN]	61	31			100 nL (luminescence) [1]: 900; 200 nL (luminescence) [2]: 1056
O=C1C=CC(=O)c2c(O)cccc21 [JUGLONE]	58	95			
COc1ccc(/C=C/C(=O)c2ccc(O)cc2O)cc1 [2′,4′-DIHYDROXY-4-METHOXYCHALCONE]	246	121	4576	2720	
CCCCC(CC)CNC(=N)NC(=N)NCCCCCCNC(=N)NC(=N)NCC(CC)CCCC (stereo not drawn) [ALEXIDINEHYDROCHLORIDE]	101	-18	1900	52	
COc1ccc(-c2oc3ccccc3c(=O)c2O)cc1OC [3-HYDROXY-3′,4′-DIMETHOXYFLAVONE]	85	-6	1504	316	fold less effective than quercetin and fisetin (flavone SAR): 2.5 fold
C=C1CC[C@@H]2[C@](C)(CO)[C@H](O)CC[C@@]2(C)[C@@H]1C/C=C1/C(=O)OC[C@H]1O [ANDROGRAPHOLIDE]	78	11			100 nL (luminescence): 1404; 200 nL (luminescence): 708
O=C1c2cccc(O)c2C(=O)c2c(O)cccc21 [DANTRON, reference compound]	29	29	616	1020	
O=c1ccn([C@@H]2O[C@H](COP(=O)([O-])OP(=O)([O-])OP(=O)([O-])O)[C@@H](O)[C@H]2O)c(=O)[nH]1.[Na+].[Na+].[Na+] [URIDINETRIPHOSPHATETRISODIUM]			612	708	Activation 100 nL: 28%; Activation 200 nL: 16%
COc1ccc2c(c1)OCc1c-2oc2cc(OC)ccc12 [DEHYDROVARIABILIN]	86	39	1672	916	
CCCSc1ccc2nc(NC(=O)OC)[nH]c2c1 [ALBENDAZOLE, reference compound]	191	272			100 nL (luminescence): 4200; 200 nL (luminescence): 5292
Nc1ncnc2c1ncn2[C@@H]1O[C@H](CO)[C@@H](O)[C@H]1O [ADENOSINE, reference compound]	61	20			100 nL (luminescence): 1100; 200 nL (luminescence): 760; hit strength in the screen (words): modest hits
CC(=O)Oc1cc2c(cc1OC(C)=O)[C@@H]1c3ccc(OC(C)=O)c(OC(C)=O)c3OC[C@]1(OC(C)=O)C2 [HAEMATOXYLINPENTAACETATE]			1040	1304	Activation 100 nL: 50%; Activation 200 nL: 37%
COc1cc([C@@H]2c3cc4c(cc3[C@@H](O[C@@H]3O[C@@H]5CO[C@@H](c6cccs6)O[C@H]5[C@H](O)[C@H]3O)[C@H]3COC(=O)[C@H]23)OCO4)cc(OC)c1O [TENIPOSIDE, reference compound]	159	61	3572	1520	Neh2-luc reporter activation: 200%
O=C1OCCN1/N=C/c1ccc([N+](=O)[O-])o1 [FURAZOLIDONE, reference compound]	43	45			100 nL (luminescence): 876; 200 nL (luminescence): 1288
CC(C)=CCc1c2c(c(O)c3c(=O)c(O)c(-c4ccccc4)oc13)C=CC(C)(C)O2 [SERICETIN]	263	20	2672	800	
CC(C)c1cccc(=O)c(O)c1 [HINOKITIOL]	29	1	860	372	
O=C(/C=C/c1ccccc1)c1ccc(O)cc1O [2′,4′-DIHYDROXYCHALCONE]	227	45	2352	1388	
